Consider 30 compounds from PubChem BioAssay AID179 (DTP/NCI, 2004).

The term EC50 denotes the concentration giving half of the maximal effect. In general, IC50 refers to the concentration needed to halve the response being measured.

Calls of active or inactive are those of the source.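 How the source made its calls: active means compounds giving half or more protection of infected cells from virus-caused growth loss, again on retest; inactive means the rest.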

The test system of the experiment is CEM cells HIV-1 protection, formazan growth assay. In words: NCI AIDS Antiviral Assay. The conditions noted are these: for IC50: measured here: growth of uninfected CEM cells. Summed up:
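Human CEM cells, uninfected and HIV-1-infected, exposed to five drug concentrations; growth measured by soluble formazan assay and scored as percent protection from infection, with protecting compounds retested.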

Regarding `CCOC(=O)C(Cc1cc(OC)c(CC(C(=O)OCC)C(=O)OCC)cc1OC)C(=O)OCC`, the outcome was inactive.
For the compound `O=C(OCCN=c1c2ccccc2ccc2ccccc12)c1cc([N+](=O)[O-])cc([N+](=O)[O-])c1`, the EC50 is over 200 µM and the IC50 was 158 µM.
In the same order, the values of `COc1cc2ccc3c4cc(OC)c(OC(C)C)cc4c[n+](C)c3c2cc1OC` are over 178 µM and 174 µM.
For `[Cl][Tb]([Cl])[Cl]`, the result was inactive.
Take `COC(=O)OCC1C=CC(n2cnc3c(Cl)nc(N)nc32)CC1` (stereo unspecified): the EC50 was over 200 µM and the half-inhibitory concentration (IC50) came out at 31.6 µM.
In the same order, the values of `O=C(/C=C/c1ccc(O)c(O)c1)OCc1ccccc1` are over 12 µM and 11.2 µM.
In the same order, the values of `CC(=O)OCN(C)c1nc(N(C)COC(C)=O)nc(N(C)COC(C)=O)n1` are over 50.1 µM and over 50.1 µM.
With `NC(Cc1cnc[nH]1)C(=O)NC(Cc1ccc(O)c(O)c1)C(=O)NCC(=O)N/C=C\c1c[nH]c2cc(Br)ccc12` (stereo unspecified), the EC50 is over 81.3 µM and the IC50 was over 81.3 µM.
Take `CC(C)(C)S(=O)OC12CC3CC(CC(C3)C1)C2` (stereo unspecified): the EC50 was over 708 µM and the half-maximal inhibitory concentration (IC50) amounted to 151 µM.
For `COc1ccc(N(C(=O)Nc2ccc(Cl)c(Cl)c2)c2ccccc2)cc1`, in that order: over 200 µM and 126 µM.
For `Cn1nc(Br)c(=O)n(C(c2ccccc2)c2ccccc2)c1=O`, in that order: over 69.2 µM and 22.9 µM.
For `O=C1Oc2ccccc2C(=O)/C1=C/N1C(=O)N/C(=C\c2ccccc2Br)C1=O`, in that order: over 200 µM and 83.2 µM.
Regarding `CC1=NN(c2ccccc2)C(=O)C1=C1SCCCS1`, the EC50 was over 46.8 µM and the 50% inhibitory concentration (IC50) was over 46.8 µM.
For the compound `Clc1ccccc1C(=Nc1ccccc1)C(=Nc1ccccc1)c1ccccc1Cl`, the EC50 is over 1.74 µM and the 50% inhibitory concentration (IC50) was over 1.74 µM.
Consider `O=C1CSC2=NC3=C(COC/C3=C\c3ccc(Br)cc3)C(c3ccc(Br)cc3)N12` (stereo unspecified), for which the outcome was inactive.
As for `O=c1ccn2c(n1)OC1C(O)C(CO)OC12` (stereo unspecified), the EC50 was over 200 µM and the half-inhibitory concentration (IC50) is over 200 µM.
On to `Cn1c(=O)c2c(n(C)c1=O)n1c(=O)c3ccccc3nc1n2C`, for which the EC50 is over 200 µM and the IC50 was over 200 µM.
As to `Cn1c2c(cc(-c3ccccc3)c1=O)COc1ccccc1-2`, the EC50 was over 89.1 µM and the IC50 stood at 46.8 µM.
Regarding `C(=C(c1ccc(OC2CCCCO2)cc1)c1ccc(OC2CCCCO2)cc1)c1ccccc1` (stereo unspecified), the EC50 was over 2 µM and the concentration for half-maximal inhibition (IC50) was 1.12 µM.
For `C=CCOc1ccc(/C(N=Nc2ccc(Cl)cc2)=N/NC(=O)c2ccccc2)cc1OC`, in that order: over 200 µM and 87.1 µM.
For `O=CSC(=Nc1ccc(Cl)cc1)NC(=O)COc1ccc(Cl)cc1`, in that order: over 148 µM and over 100 µM.
As to `c1ccc2c3csccc-3nc2c1`, the EC50 is over 200 µM and the IC50 turned out to be 97.7 µM.
In the same order, the values of `C[N+](C)(C)CCC(=O)CC[N+](C)(C)C` are over 8.32 µM and over 8.32 µM.
As to `O=C(/C=C/c1ccc(OCCCOc2ccc(/C=C/C(=O)c3ccccc3)cc2)cc1)c1ccccc1`, the EC50 was over 10.7 µM and the half-inhibitory concentration (IC50) was over 10.7 µM.
For the compound `CC(C)(C)OC(=O)NCCNC(=O)CN(CC(=O)O)C1CCCCC1N(CC(=O)O)CC(=O)O` (stereo unspecified), the EC50 is over 200 µM and the IC50 came out at 170 µM.
With `CC(C)CN1CC(C)C(=O)NC1=O` (stereo unspecified), the result was inactive.
Regarding `N#Cc1c(=O)c2ccccc2n2ccccc12`, the EC50 was over 100 µM and the 50% inhibitory concentration (IC50) was over 100 µM.
On to `CCc1cccc(C(C)C)c1NC(=O)CC1Sc2ccccc2NC1=O` (stereo unspecified), for which the EC50 is over 97.7 µM and the half-maximal inhibitory concentration (IC50) was determined as 52.5 µM.
In the same order, the values of `CNC(=O)OCc1nc(N=[N+]=[N-])n(C)c1COC(=O)NC` are over 200 µM and 42.7 µM.
For the compound `CNC(c1ccncc1)C(NC)c1ccncc1` (stereo unspecified), the EC50 is over 200 µM and the IC50 is over 200 µM.
